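Values below derive from 48-hour exposures of cells grown in 96-well plates, with endpoints linearly interpolated between the two concentrations bracketing the appropriate inhibition level. TGI marks complete inhibition of growth.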
How the values were obtained:
Experiment in all cases: inhibition of tumour cell growth, NCI panel, 48 h
SF-295 CNS = test system: SF-295 CNS
COLO 205 colon = test system: COLO 205 colon
SN12C renal = test system: SN12C renal
U251 CNS = test system: U251 CNS
RXF 393 renal = test system: RXF 393 renal
SNB-19 CNS = test system: SNB-19 CNS
PC-3 prostate = test system: PC-3 prostate
OVCAR-4 ovarian = test system: OVCAR-4 ovarian
UO-31 renal = test system: UO-31 renal
HT29 colon = test system: HT29 colon
SW-620 colon = test system: SW-620 colon
MALME-3M melanoma = test system: MALME-3M melanoma
OVCAR-5 ovarian = test system: OVCAR-5 ovarian
HCT-15 colon = test system: HCT-15 colon
MCF7 breast = test system: MCF7 breast
NCI-H23 lung = test system: NCI-H23 lung
A549 NSCLC = test system: A549 NSCLC
TK-10 renal = test system: TK-10 renal
HS 578T breast = test system: HS 578T breast
ACHN renal = test system: ACHN renal
MDA-MB-435 = test system: MDA-MB-435
SK-MEL-2 melanoma = test system: SK-MEL-2 melanoma
NCI-H460 lung = test system: NCI-H460 lung
HCC-2998 colon = test system: HCC-2998 colon
MDA-N = test system: MDA-N
NCI/ADR-RES ovarian = test system: NCI/ADR-RES ovarian
BT-549 breast = test system: BT-549 breast
MOLT-4 leukemia = test system: MOLT-4 leukemia
NCI-H522 lung = test system: NCI-H522 lung
CAKI-1 renal = test system: CAKI-1 renal
SK-MEL-28 melanoma = test system: SK-MEL-28 melanoma
LOX IMVI melanoma = test system: LOX IMVI melanoma
IGROV1 ovarian = test system: IGROV1 ovarian
SNB-75 CNS = test system: SNB-75 CNS
HOP-92 NSCLC = test system: HOP-92 NSCLC
HCT-116 colon = test system: HCT-116 colon
UACC-62 melanoma = test system: UACC-62 melanoma
OVCAR-3 ovarian = test system: OVCAR-3 ovarian
786-0 renal = test system: 786-0 renal
A498 renal = test system: A498 renal
SF-539 CNS = test system: SF-539 CNS
HOP-62 NSCLC = test system: HOP-62 NSCLC
UACC-257 melanoma = test system: UACC-257 melanoma
SK-OV-3 ovarian = test system: SK-OV-3 ovarian
M14 melanoma = test system: M14 melanoma
HL-60(TB) leukemia = test system: HL-60(TB) leukemia
DU-145 prostate = test system: DU-145 prostate
KM12 colon = test system: KM12 colon
T-47D breast = test system: T-47D breast
SF-268 CNS = test system: SF-268 CNS
NCI-H226 lung = test system: NCI-H226 lung
SK-MEL-5 melanoma = test system: SK-MEL-5 melanoma
RPMI-8226 leukemia = test system: RPMI-8226 leukemia
K-562 leukemia = test system: K-562 leukemia
OVCAR-8 ovarian = test system: OVCAR-8 ovarian
MDA-MB-231 breast = test system: MDA-MB-231 breast
EKVX NSCLC = test system: EKVX NSCLC

SMILES: CN(C)CCNc1nc2ccccc2c2c1CCCC2
- TGI (SF-295 CNS): 31.1 µM
- TGI (COLO 205 colon): > 100 µM
- TGI (SN12C renal): 89.2 µM
- TGI (U251 CNS): 37 µM
- TGI (RXF 393 renal): 22.9 µM
- TGI (SNB-19 CNS): > 100 µM
- TGI (PC-3 prostate): > 100 µM
- TGI (OVCAR-4 ovarian): > 100 µM
- TGI (UO-31 renal): 27.5 µM
- TGI (HT29 colon): 95.1 µM
- TGI (SW-620 colon): 86 µM
- TGI (MALME-3M melanoma): 30.1 µM
- TGI (OVCAR-5 ovarian): > 100 µM
- TGI (HCT-15 colon): > 100 µM
- TGI (MCF7 breast): 29.1 µM
- TGI (NCI-H23 lung): > 100 µM
- TGI (A549 NSCLC): > 100 µM
- TGI (TK-10 renal): 29.7 µM
- TGI (HS 578T breast): > 100 µM
- TGI (ACHN renal): 65.3 µM
- TGI (MDA-MB-435): 36.1 µM
- TGI (SK-MEL-2 melanoma): 32.5 µM
- TGI (NCI-H460 lung): 31 µM
- TGI (HCC-2998 colon): 25.6 µM
- TGI (MDA-N): 33.9 µM
- TGI (NCI/ADR-RES ovarian): > 100 µM
- TGI (BT-549 breast): > 100 µM
- TGI (MOLT-4 leukemia): 61.8 µM
- TGI (NCI-H522 lung): 33.1 µM
- TGI (CAKI-1 renal): 44.7 µM
- TGI (SK-MEL-28 melanoma): 39.6 µM
- TGI (LOX IMVI melanoma): 34.7 µM
- TGI (IGROV1 ovarian): 38.3 µM
- TGI (SNB-75 CNS): 56.3 µM
- TGI (HOP-92 NSCLC): 58.3 µM
- TGI (HCT-116 colon): 30.2 µM
- TGI (UACC-62 melanoma): 31.1 µM
- TGI (OVCAR-3 ovarian): > 100 µM
- TGI (786-0 renal): 34.2 µM
- TGI (A498 renal): 35.8 µM
- TGI (SF-539 CNS): > 100 µM
- TGI (HOP-62 NSCLC): 35.8 µM
- TGI (UACC-257 melanoma): 29.3 µM
- TGI (SK-OV-3 ovarian): 42.9 µM
- TGI (M14 melanoma): 32.5 µM
- TGI (HL-60(TB) leukemia): 32.3 µM
- TGI (DU-145 prostate): > 100 µM
- TGI (KM12 colon): 41.4 µM
- TGI (T-47D breast): 40.4 µM
- TGI (SF-268 CNS): > 100 µM
- TGI (NCI-H226 lung): 55.7 µM
- TGI (SK-MEL-5 melanoma): 32.4 µM
- TGI (RPMI-8226 leukemia): 46.7 µM
- TGI (K-562 leukemia): 39.9 µM
- TGI (OVCAR-8 ovarian): > 100 µM
- TGI (MDA-MB-231 breast): 33.6 µM
- TGI (EKVX NSCLC): > 100 µM
